Measurements published in paper PMC8954547, “Nonpeptidic Z360-Analogs Tagged with Trivalent Radiometals as Anti-CCK2R Cancer Theranostic Agents: A Preclinical Study” (Pharmaceutics, 2022).
*1 amine or outer side, *2 acyl side, *3 side chain or, on linkers, in order; H or OH if unused. Where a SMILES comes first, the peptide text is derived from it. [ ]: non-standard residue; d: D form. The star is where a group is joined. X1 = CC(C)(C)C(=O)CN1C(=O)[C@H](N*)CN(C2CCCCC2)c2ccccc21; pGlu = O=C1CC[C@@H](C(=O)O)N1; PEG3 = NCCOCCOCCOCCC(=O)O; 3Abz = Nc1cccc(C(=O)O)c1; X2 = NCCNCC(CNCCN)C(=O)*; CO = O=C([*:1])[*:2]

How the values were obtained:
[1] = tested on: HEK293-YC3.60 cells; test: FRET-based Ca2+ mobilization assay in HEK293-YC3.60 cells (negative controls devoid of CCK2R); type: cell-based, human; details: HEK293-YC3.60 clone #5
Method: For most biological experiments, HEK293 cells transfected to stably express the human CCK2i4svR splice variant were used, kindly provided by Dr. P. Laverman (Radboud University Nijmegen Medical Center, Nijmegen, The Netherlands) and Prof. M. R. Hellmich (University of Texas Medical Branch, Galveston, TX, USA), while non-transfected wtHEK293 cells served as negative controls. Cells were cultured in DMEM with GlutaMAX-I supplemented with 10% (v/v) fetal bovine serum (FBS), 100 U/mL penicillin and 100 μg/mL streptomycin and kept in a controlled humidified air containing 5% CO2 at 37 °C; the medium for transfected cells was additionally supplemented with 400 μg/mL G418. […]
Purity as determined by HPLC exceeded 97% in all cases. system 1 was applied: RP-HPLC with twin UV detection at 220 nm and gamma detection; a Symmetry Shield RP18 column (5 μm, 3.9 mm × 150 mm) was eluted at a flow rate of 1 mL/min with linear gradient: 100%A/0% B to 70%A/30% B in 5 min and then 70%A/30% B to 55%A/45% B in 60 min, with A = 0.1% TFA in H2O (v/v) and B = MeCN. […]
Methods for FRET-based detection of Ca2+ in HEK293 cells were descri bed previ ousl y. […] The human CCK2R (NM_176875) in pCMV6-Entry vector contained the receptor’s complete open reading frame with a Myc-DDK epitope tag (OriGene Technologies; Cat. No. R200676). […]

[2] = target: T1, human CCK2R (Homo sapiens, UniProt P32239); test: FRET-based Ca2+ mobilization assay in HEK293-hCCK2R/YC3.60 cells; type: cell-based
T1 construct: host or cells: HEK293 clone #21 (HEK293-hCCK2R/YC3.60), stably co-expressing the Ca2+ biosensor YC3.60
T1 sequence (P32239 1-447): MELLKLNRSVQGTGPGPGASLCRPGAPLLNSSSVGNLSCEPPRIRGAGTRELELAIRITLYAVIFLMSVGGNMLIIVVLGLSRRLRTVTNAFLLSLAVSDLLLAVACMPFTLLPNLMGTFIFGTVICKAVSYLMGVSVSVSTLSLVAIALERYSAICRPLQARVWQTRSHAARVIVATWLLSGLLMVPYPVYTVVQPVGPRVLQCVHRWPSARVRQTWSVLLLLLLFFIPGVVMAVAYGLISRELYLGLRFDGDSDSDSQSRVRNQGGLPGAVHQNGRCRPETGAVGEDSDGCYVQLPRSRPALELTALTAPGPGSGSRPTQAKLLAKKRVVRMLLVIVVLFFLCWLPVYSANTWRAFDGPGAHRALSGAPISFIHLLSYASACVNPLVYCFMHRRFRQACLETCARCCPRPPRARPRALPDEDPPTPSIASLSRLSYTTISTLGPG
Method: For most biological experiments, HEK293 cells transfected to stably express the human CCK2i4svR splice variant were used, kindly provided by Dr. P. Laverman (Radboud University Nijmegen Medical Center, Nijmegen, The Netherlands) and Prof. M. R. Hellmich (University of Texas Medical Branch, Galveston, TX, USA), while non-transfected wtHEK293 cells served as negative controls. Cells were cultured in DMEM with GlutaMAX-I supplemented with 10% (v/v) fetal bovine serum (FBS), 100 U/mL penicillin and 100 μg/mL streptomycin and kept in a controlled humidified air containing 5% CO2 at 37 °C; the medium for transfected cells was additionally supplemented with 400 μg/mL G418. All culture media were purchased from Gibco BRL, Life Technologies (Grand Island, NY, USA) and supplements were supplied by Biochrom KG Seromed (Berlin, Germany). For Ca^2+-mobilization assays, HEK293 cell clones (generated by O.G. Chepurny in the G.G. Holz laboratory) were transfected to stably co-express either both the human CCK2R and the Ca^2+ biosensor YC3.60 (clone #21) or only YC3.60 (clone #5, negative controls devoid of CCK2R expression) (Supplementary File). Ca^2+ mobilization assays were conducted by FRET-based detection of Ca^2+ in HEK293-hCCK2R/YC3.60 and HEK293-YC3.60 cells (negative controls) for GAS1/2/3 as well as for DG2, [Leu^15]gastrin-17 and Z360 (controls), as outlined in the Supplementary File. […]
Table S2. Analytical HPLC Data for (Radio)Metal-Tagged GAS1/2/3 (tR (min) gamma/UV trace). compound - [67Ga]Ga/[natGa]Ga [111In]In/[natIn]In [177Lu]Lu/[natLu]Lu […]
Purity as determined by HPLC exceeded 97% in all cases. system 1 was applied: RP-HPLC with twin UV detection at 220 nm and gamma detection; a Symmetry Shield RP18 column (5 μm, 3.9 mm × 150 mm) was eluted at a flow rate of 1 mL/min with linear gradient: 100%A/0% B to 70%A/30% B in 5 min and then 70%A/30% B to 55%A/45% B in 60 min, with A = 0.1% TFA in H2O (v/v) and B = MeCN.
Preparation of [natGa]Ga-GAS1/2/3, [natIn]In-GAS1/2/3 and [natLu]Lu-GAS1/3 To an Eppendorf Protein LoBind® centrifuge tube containing GAS1/2/3 precursor stock solution (60 μL, 120 μg, ≈60 nmol), a stock solution (60 μL, 2 mM, 120 nmol) of the respective nitrate salt dissolved in 1 M sodium acetate buffer of pH 4.0 (for gallium), 4.6 (for indium) and 5.0 (for lutetium) was added. The mixture was heated at 75 °C for 1 h. […]
action mixture using HPLC system 1, allowing for base line separation of metal-tagged from metal-free GAS1/2/3. Retention times (UV trace, tR in min) of all GAS species were included in Table S2. The metal-tagged GAS solutions were used as such in in vitro com-petition binding assays assuming a 0.5 mM CCK2R-ligand concentration.
Methods for FRET-based detection of Ca2+ in HEK293 cells were descri bed previ ousl y. The clone #21 HEK293 cell line (HEK293-hCCK2R/YC3.60) stably co-expressing the human CCK2R and the Ca2+ biosensor YC3.60 was generated a ccording to published methods. The clone #5 HEK293 cell line (HEK293-YC3.60) that expressed only YC3.60 served as a negative control and was generated in a similar matter. […] The human CCK2R (NM_176875) in pCMV6-Entry vector contained the receptor’s complete open reading frame with a Myc-DDK epitope tag (OriGene Technologies; Cat. No. R200676). Test compounds included human [Leu15]-gastrin- […]

[3] = target: T2, human CCK2i4svR splice variant (Homo sapiens, UniProt P32239); test: Competition binding against [125I][I-Tyr12,Leu15]gastrin-17 in HEK293-CCK2i4svR cell membranes; details: vs [125I][I-Tyr12,Leu15]gastrin-17, HEK293-CCK2i4svR cell membranes, 1 h 22 °C; mean ± SD
T2 construct: expressed in transfected cells; membrane homogenates
T2 sequence (P32239 1-516 isoform P32239-2): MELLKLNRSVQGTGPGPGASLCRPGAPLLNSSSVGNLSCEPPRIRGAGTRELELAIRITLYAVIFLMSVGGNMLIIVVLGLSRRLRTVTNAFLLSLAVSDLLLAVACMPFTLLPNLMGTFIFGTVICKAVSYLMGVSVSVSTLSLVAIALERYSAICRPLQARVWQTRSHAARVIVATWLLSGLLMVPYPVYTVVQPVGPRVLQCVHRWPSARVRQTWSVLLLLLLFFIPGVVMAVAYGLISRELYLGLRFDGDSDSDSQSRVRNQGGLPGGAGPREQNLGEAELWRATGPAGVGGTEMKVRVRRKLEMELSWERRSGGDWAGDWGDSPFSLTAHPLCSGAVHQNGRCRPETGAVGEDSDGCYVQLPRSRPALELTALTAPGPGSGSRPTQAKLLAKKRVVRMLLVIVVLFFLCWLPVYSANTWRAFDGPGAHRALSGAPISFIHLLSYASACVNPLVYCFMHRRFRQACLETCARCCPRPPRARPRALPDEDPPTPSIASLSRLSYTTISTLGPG
Method: Competition binding assays for the metal-free GAS1/2/3 and the corresponding metal-tagged [^natGa]Ga/[^natIn]In/[^natLu]Lu-GAS1/3 and [^natGa]Ga/[^natIn]In-GAS2 analogs were conducted against the [^125I][I-Tyr^12,Leu^15]gastrin-17 radioligand in membrane homogenates harvested from HEK293-CCK2i4svR cells, as previously described. Briefly, each of the above analogs, or unmodified Z360 serving as control, was incubated in triplicates of increasing concentrations (10^−13–10^−6 M) with [^125I][I-Tyr^12,Leu^15]gastrin-17 (50 pM, ≈40,000 cpm) and membrane homogenate in binding buffer (300 µL, pH 7.4, 50 mM HEPES, 1% BSA, 5.5 mM MgCl2, 35 µM bacitracin) for 1 h at 22 °C. Incubation was interrupted by rapid filtration through glass fiber filters (Whatman GF/B, presoaked in binding buffer for at least 1 h) on a Brandel Cell Harvester (Adi Hassel Ingenieur Büro, Munich, Germany) and subsequent rinsing with ice-cold washing buffer (10 mM HEPES pH 7.4, 150 mM NaCl). The radioactivity content of individual filters was measured in a gamma counter (automated multi-sample well-type instrument with a NaI(Tl) 3′ crystal, Canberra Packard Cobra^TM Quantum U5003/1, Auto-Gamma® counting system). The 50% inhibitory concentration (IC50) was determined by nonlinear regression analysis according to a one-site model using PRISM 6 (Graph Pad Software, San Diego, CA, USA). Values are expressed as mean ± standard deviation (SD) of three independent experiments performed in triplicate.

[4] = target: T1, human CCK2R; parameters: method as in PMID 32568549; details: cited from earlier work

| Concentration at which the CCK2R is activated (Ca2+ mobilization) [2] [pM] | Structure (SMILES) | Ca2+ response in cells devoid of CCK2R expression [1] | IC50 [3] [nM] | Concentration threshold for agonistic properties (Ca2+ mobilization) [2] [nM] | Functional profile at the CCK2R [4] |
| --- | --- | --- | --- | --- | --- |
| 100 | CC(C)C[C@H](NC(=O)[C@H](Cc1c[nH]c2ccccc12)NC(=O)CNC(=O)[C@H](Cc1ccc(O)cc1)NC(=O)[C@H](C)NC(=O)[C@H](CCC(=O)O)NC(=O)[C@H](CCC(=O)O)NC(=O)[C@H](CCC(=O)O)NC(=O)[C@H](CCC(=O)O)NC(=O)[C@H](CCC(=O)O)NC(=O)[C@H](CC(C)C)NC(=O)[C@H](Cc1c[nH]c2ccccc12)NC(=O)[C@@H]1CCCN1C(=O)CNC(=O)[C@@H]1CCC(=O)N1)C(=O)N[C@@H](CC(=O)O)C(=O)N[C@@H](Cc1ccccc1)C(N)=O [[Leu^15]gastrin-17, pGlu-Gly-Pro-Trp-Leu-(Glu)5-Ala-Tyr-Gly-Trp-Leu-Asp-Phe-NH2, reference compound] ([pGlu]GPWLEEEEEAYGWLDF-NH2) | failed to respond |  |  |  |
|  | CC(C)(C)C(=O)CN1C(=O)C(NC(=O)Nc2cccc(C(=O)O)c2)CN(C2CCCCC2)c2ccccc21 (centres unmarked) [Z360] |  | 1.2 ± 0.5 | > 100 |  |
|  | CC(C)(C)C(=O)CN1C(=O)[C@H](NC(=O)Nc2cccc(C(=O)NCCOCCOCCOCCNC(=O)[C@H](CCC(=O)O)NC(=O)CCC(C(=O)O)N3CCN(CC(=O)O)CCN(CC(=O)O)CCN(CC(=O)O)CC3)c2)CN(C2CCCCC2)c2ccccc21 (some centres unmarked) [GAS3, DOTAGA-DGlu-HN(PEG3)NH-Z360] |  | 3.1 ± 1.5 | > 100 |  |
|  | CC(C)(C)C(=O)CN1C(=O)[C@H](NC(=O)Nc2cccc(C(=O)NCCOCCOCCOCCNC(=O)[C@H](CCC(=O)O)NC(=O)CCC(C(=O)O)N3CCN(CC(=O)O)CCN(CC(=O)O)CC3)c2)CN(C2CCCCC2)c2ccccc21 (some centres unmarked) [GAS2, NODAGA-DGlu-HN(PEG3)NH-Z360] |  | 4.1 ± 1.1 | > 100 |  |
|  | CC(C)(C)C(=O)CN1C(=O)[C@H](NC(=O)Nc2cccc(C(=O)NCCOCCOCCOCCNC(=O)[C@H](CCC(=O)O)NC(=O)CN3CCN(CC(=O)O)CCN(CC(=O)O)CCN(CC(=O)O)CC3)c2)CN(C2CCCCC2)c2ccccc21 [GAS1, DOTA-DGlu-HN(PEG3)NH-Z360] |  | 5.9 ± 1.8 | > 100 |  |
|  | CC(C)(C)C(=O)CN1C(=O)[C@H](NC(=O)Nc2cccc(C(=O)NCCOCCOCCOCCC(=O)N[C@H](CCC(=O)O)C(=O)N[C@H](CCC(=O)O)C(=O)N[C@H](CCC(=O)O)C(=O)N[C@H](CCC(=O)O)C(=O)N[C@@H](CCCCNC(=O)C(CNCCN)CNCCN)C(=O)O)c2)CN(C2CCCCC2)c2ccccc21 [DGA1, Z360-PEG3-DGlu-DGlu-DGlu-DGu-Lys(N4)−OH] ({X1-CO-3Abz-PEG3}-[dE][dE][dE][dE]K(X2)-OH) |  |  |  | pure antagonist profile |
